Measurements as given in ChEMBL document CHEMBL2390858, “Design, synthesis and anti-tuberculosis activity of 1-adamantyl-3-heteroaryl ureas with improved in vitro pharmacokinetic properties” (Bioorg Med Chem, 2013).
pIC50: −log10 of the molar value. In brackets after ≈: the same amount, converted by molar mass.

Tested on: Enterococcus faecalis
Experiment: microbe, parasite or virus in culture
Conditions: not given

| SMILES | MIC [µg/mL] |
| --- | --- |
| Cc1cc(NC(=O)NC2C3CC4CC(C3)CC2C4)no1 (configuration not stated) | > 200 |
| CCCn1nc(NC(=O)NC2C3CC4CC(C3)CC2C4)cc1C (configuration not stated) | > 200 |
| CC(C)(C)c1cc(NC(=O)NC2C3CC4CC(C3)CC2C4)no1 (configuration not stated) | 6.25 (≈ 19.7 µM) |

Tested on: Burkholderia cepacia
Experiment: microbe, parasite or virus in culture
Conditions: not given

| SMILES | MIC [µg/mL] |
| --- | --- |
| Cc1cc(NC(=O)NC2C3CC4CC(C3)CC2C4)no1 (configuration not stated) | > 200 |
| CCCn1nc(NC(=O)NC2C3CC4CC(C3)CC2C4)cc1C (configuration not stated) | > 200 |
| CC(C)(C)c1cc(NC(=O)NC2C3CC4CC(C3)CC2C4)no1 (configuration not stated) | > 200 |

Tested on: Streptococcus pyogenes
Experiment: microbe, parasite or virus in culture
Conditions: not given

| SMILES | MIC [µg/mL] |
| --- | --- |
| Cc1cc(NC(=O)NC2C3CC4CC(C3)CC2C4)no1 (configuration not stated) | > 200 |
| CCCn1nc(NC(=O)NC2C3CC4CC(C3)CC2C4)cc1C (configuration not stated) | > 200 |
| CC(C)(C)c1cc(NC(=O)NC2C3CC4CC(C3)CC2C4)no1 (configuration not stated) | > 200 |

Tested on: Escherichia coli
Experiment: microbe, parasite or virus in culture
Conditions: K-12

| SMILES | MIC [µg/mL] |
| --- | --- |
| Cc1cc(NC(=O)NC2C3CC4CC(C3)CC2C4)no1 (configuration not stated) | > 200 |
| CCCn1nc(NC(=O)NC2C3CC4CC(C3)CC2C4)cc1C (configuration not stated) | > 200 |
| CC(C)(C)c1cc(NC(=O)NC2C3CC4CC(C3)CC2C4)no1 (configuration not stated) | > 200 |

Tested on: Pseudomonas aeruginosa
Experiment: microbe, parasite or virus in culture
Conditions: not given

| SMILES | MIC [µg/mL] |
| --- | --- |
| Cc1cc(NC(=O)NC2C3CC4CC(C3)CC2C4)no1 (configuration not stated) | > 200 |
| CCCn1nc(NC(=O)NC2C3CC4CC(C3)CC2C4)cc1C (configuration not stated) | > 200 |
| CC(C)(C)c1cc(NC(=O)NC2C3CC4CC(C3)CC2C4)no1 (configuration not stated) | > 200 |

Tested on: Bacillus anthracis
Experiment: microbe, parasite or virus in culture
Conditions: Sterne

| SMILES | MIC [µg/mL] |
| --- | --- |
| Cc1cc(NC(=O)NC2C3CC4CC(C3)CC2C4)no1 (configuration not stated) | > 200 |
| CCCn1nc(NC(=O)NC2C3CC4CC(C3)CC2C4)cc1C (configuration not stated) | > 200 |
| CC(C)(C)c1cc(NC(=O)NC2C3CC4CC(C3)CC2C4)no1 (configuration not stated) | > 200 |

Tested on: Staphylococcus aureus
Experiment: microbe, parasite or virus in culture
Conditions: NRS70

| SMILES | MIC [µg/mL] |
| --- | --- |
| Cc1cc(NC(=O)NC2C3CC4CC(C3)CC2C4)no1 (configuration not stated) | > 200 |
| CCCn1nc(NC(=O)NC2C3CC4CC(C3)CC2C4)cc1C (configuration not stated) | > 200 |
| CC(C)(C)c1cc(NC(=O)NC2C3CC4CC(C3)CC2C4)no1 (configuration not stated) | 200 (≈ 630 µM) |

Tested on: Streptococcus pneumoniae
Experiment: microbe, parasite or virus in culture
Conditions: not given

| SMILES | MIC [µg/mL] |
| --- | --- |
| Cc1cc(NC(=O)NC2C3CC4CC(C3)CC2C4)no1 (configuration not stated) | > 200 |
| CCCn1nc(NC(=O)NC2C3CC4CC(C3)CC2C4)cc1C (configuration not stated) | > 200 |
| CC(C)(C)c1cc(NC(=O)NC2C3CC4CC(C3)CC2C4)no1 (configuration not stated) | > 200 |

Tested on: not listed separately
Experiment: Metabolic stability in CD-1 mouse liver microsomes assessed as compound remaining after 90 mins in presence of NADPH
Format: ADME, Microsome
Conditions: read-out: Stability

| SMILES | remaining at […] [%] |
| --- | --- |
| CC(C)(C)c1cc(NC(=O)NC2C3CC4CC(C3)CC2C4)no1 (configuration not stated) | > 30 |

Tested on: Vero
Experiment: cells
Conditions: Chlorocebus sabaeus, 72 h

| SMILES | IC50 [µg/mL] |
| --- | --- |
| Cc1cc(NC(=O)NC2C3CC4CC(C3)CC2C4)no1 (configuration not stated) | > 48 |
| CCCn1nc(NC(=O)NC2C3CC4CC(C3)CC2C4)cc1C (configuration not stated) | 83 (≈ 262 µM) |
| CC(C)(C)c1cc(NC(=O)NC2C3CC4CC(C3)CC2C4)no1 (configuration not stated) | 7 (≈ 22.1 µM) |

Tested on: Staphylococcus aureus
Experiment: microbe, parasite or virus in culture
Conditions: ATCC 29213

| SMILES | MIC [µg/mL] |
| --- | --- |
| Cc1cc(NC(=O)NC2C3CC4CC(C3)CC2C4)no1 (configuration not stated) | > 200 |
| CCCn1nc(NC(=O)NC2C3CC4CC(C3)CC2C4)cc1C (configuration not stated) | > 200 |
| CC(C)(C)c1cc(NC(=O)NC2C3CC4CC(C3)CC2C4)no1 (configuration not stated) | > 200 |

Target: T1, Bifunctional epoxide hydrolase 2 (Homo sapiens, UniProt P34913)
T1 sequence (P34913 whole entry): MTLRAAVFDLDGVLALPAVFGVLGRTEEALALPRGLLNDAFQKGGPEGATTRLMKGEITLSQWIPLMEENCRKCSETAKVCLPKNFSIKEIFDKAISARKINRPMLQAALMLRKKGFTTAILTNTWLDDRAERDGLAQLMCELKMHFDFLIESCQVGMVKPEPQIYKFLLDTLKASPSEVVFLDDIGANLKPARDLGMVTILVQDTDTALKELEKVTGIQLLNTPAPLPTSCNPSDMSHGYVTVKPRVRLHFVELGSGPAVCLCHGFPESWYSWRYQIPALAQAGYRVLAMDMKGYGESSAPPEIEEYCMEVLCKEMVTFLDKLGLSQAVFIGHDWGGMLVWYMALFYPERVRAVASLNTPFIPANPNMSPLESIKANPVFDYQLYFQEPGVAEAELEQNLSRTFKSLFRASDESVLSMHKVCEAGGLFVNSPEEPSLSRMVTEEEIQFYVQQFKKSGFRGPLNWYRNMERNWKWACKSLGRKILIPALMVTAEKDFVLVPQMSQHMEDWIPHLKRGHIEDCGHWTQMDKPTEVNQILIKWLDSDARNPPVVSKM
Experiment: not given
Conditions: not given

| SMILES | pIC50 |
| --- | --- |
| Cc1cc(NC(=O)NC2C3CC4CC(C3)CC2C4)no1 (configuration not stated) | 8.30 |
| CCCn1nc(NC(=O)NC2C3CC4CC(C3)CC2C4)cc1C (configuration not stated) | 6.03 |
| CC(C)(C)c1cc(NC(=O)NC2C3CC4CC(C3)CC2C4)no1 (configuration not stated) | 7.14 |

Tested on: Klebsiella pneumoniae
Experiment: microbe, parasite or virus in culture
Conditions: not given

| SMILES | MIC [µg/mL] |
| --- | --- |
| Cc1cc(NC(=O)NC2C3CC4CC(C3)CC2C4)no1 (configuration not stated) | > 200 |
| CCCn1nc(NC(=O)NC2C3CC4CC(C3)CC2C4)cc1C (configuration not stated) | > 200 |
| CC(C)(C)c1cc(NC(=O)NC2C3CC4CC(C3)CC2C4)no1 (configuration not stated) | > 200 |

Tested on: Plasma
Experiment: not given
Conditions: human, 4 h, 10 µM

| SMILES | PPB [%] |
| --- | --- |
| CCCn1nc(NC(=O)NC2C3CC4CC(C3)CC2C4)cc1C (configuration not stated) | 98.9 |
| CC(C)(C)c1cc(NC(=O)NC2C3CC4CC(C3)CC2C4)no1 (configuration not stated) | 95.2 |

Tested on: Proteus mirabilis
Experiment: microbe, parasite or virus in culture
Conditions: not given

| SMILES | MIC [µg/mL] |
| --- | --- |
| Cc1cc(NC(=O)NC2C3CC4CC(C3)CC2C4)no1 (configuration not stated) | > 200 |
| CCCn1nc(NC(=O)NC2C3CC4CC(C3)CC2C4)cc1C (configuration not stated) | > 200 |
| CC(C)(C)c1cc(NC(=O)NC2C3CC4CC(C3)CC2C4)no1 (configuration not stated) | > 200 |

Tested on: Bacillus subtilis
Experiment: microbe, parasite or virus in culture
Conditions: not given

| SMILES | MIC [µg/mL] |
| --- | --- |
| Cc1cc(NC(=O)NC2C3CC4CC(C3)CC2C4)no1 (configuration not stated) | > 200 |
| CCCn1nc(NC(=O)NC2C3CC4CC(C3)CC2C4)cc1C (configuration not stated) | > 200 |
| CC(C)(C)c1cc(NC(=O)NC2C3CC4CC(C3)CC2C4)no1 (configuration not stated) | > 200 |

Tested on: not given
Experiment: not given
Conditions: buffer, 18 h, pH 7.4

| SMILES | solubility [µg/mL] |
| --- | --- |
| Cc1cc(NC(=O)NC2C3CC4CC(C3)CC2C4)no1 (configuration not stated) | 25.5 (≈ 92.6 µM) |
| CCCn1nc(NC(=O)NC2C3CC4CC(C3)CC2C4)cc1C (configuration not stated) | 2 (≈ 6.32 µM) |
| CC(C)(C)c1cc(NC(=O)NC2C3CC4CC(C3)CC2C4)no1 (configuration not stated) | 22.7 (≈ 71.5 µM) |

Tested on: Acinetobacter
Experiment: microbe, parasite or virus in culture
Conditions: not given

| SMILES | MIC [µg/mL] |
| --- | --- |
| Cc1cc(NC(=O)NC2C3CC4CC(C3)CC2C4)no1 (configuration not stated) | > 200 |
| CCCn1nc(NC(=O)NC2C3CC4CC(C3)CC2C4)cc1C (configuration not stated) | > 200 |
| CC(C)(C)c1cc(NC(=O)NC2C3CC4CC(C3)CC2C4)no1 (configuration not stated) | > 200 |

Tested on: Mycobacterium tuberculosis
Experiment: microbe, parasite or virus in culture
Conditions: H37Rv, 168 h

| SMILES | MIC [µg/mL] |
| --- | --- |
| Cc1cc(NC(=O)NC2C3CC4CC(C3)CC2C4)no1 (configuration not stated) | 6.25 (≈ 22.7 µM) |
| CCCn1nc(NC(=O)NC2C3CC4CC(C3)CC2C4)cc1C (configuration not stated) | 1.56 (≈ 4.93 µM) |
| CC(C)(C)c1cc(NC(=O)NC2C3CC4CC(C3)CC2C4)no1 (configuration not stated) | 0.1 (≈ 0.315 µM) |

Tested on: Proteus vulgaris
Experiment: microbe, parasite or virus in culture
Conditions: not given

| SMILES | MIC [µg/mL] |
| --- | --- |
| Cc1cc(NC(=O)NC2C3CC4CC(C3)CC2C4)no1 (configuration not stated) | > 200 |
| CCCn1nc(NC(=O)NC2C3CC4CC(C3)CC2C4)cc1C (configuration not stated) | > 200 |
| CC(C)(C)c1cc(NC(=O)NC2C3CC4CC(C3)CC2C4)no1 (configuration not stated) | > 200 |
